# According to article PMC7413254 (Nature Communications, 2020):
# Read-outs that look alike come from different tables or passages of the source.
# What was measured:
# non-expressing oocytes [1] = test: cells; format: cell-based, Xenopus laevis; settings: Xenopus laevis, total [3H]CQ transport; for inhibition at 500 µM: [test solute] = 0.5 mM; for inhibition at 1000 µM: [test solute] = 1 mM; for inhibition at 2000 µM: [test solute] = 2 mM
# Outline: (§1)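 Oocytes expressing PfCRT isoforms, or non-expressing controls, were incubated 1.5 h at 27.5 °C in ND96 buffer pH 5.5 (96 mM NaCl, 2 mM KCl, 1 mM MgCl2, 1.8 mM CaCl2, 10 mM MES, 10 mM Tris-base), measuring uptake from acidic medium into cytosol. Oocytes were washed ice-cold, SDS-lysed and counted by scintillation.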
# PfCRT^3D7 [2] = target: T1, PfCRT^3D7 (Plasmodium falciparum, UniProt Q8IBZ9); test: cell-based; format: cell-based; settings: total [3H]CQ transport; for inhibition at 500 µM: [test solute] = 0.5 mM; for inhibition at 1000 µM: [test solute] = 1 mM; for inhibition at 2000 µM: [test solute] = 2 mM
# Outline: as §1
# PfCRT^Dd2 [3] = target: T2, PfCRT^Dd2 (Plasmodium falciparum, UniProt Q9N623, A220S/I356T/K76T/M74I/N326S/N75E/Q271E/R371I); test: [3H]CQ uptake into Xenopus oocytes, cis-inhibition by unlabelled solute; format: cell-based
# Outline: as §1
# PfCRT^Ecu1110 [4] = target: T3, PfCRT^Ecu1110 (Plasmodium falciparum, UniProt Q9N623, A220S/I356L/K76T/N326D); test: as above; format: cell-based
# Outline: as §1
# non-expressing oocytes [5] = format: cell-based, Xenopus laevis; settings: total [3H]CQ transport; for Uptake of [3H]CQ (% non-expressing oocyte control), trans-stimulation: non-expressing oocytes, normalised to the oocyte type control; for Uptake of [3H]CQ (% PfCRTDd2 control), trans-stimulation, non-expressing oocytes: mean ± SEM, SEM
# Outline: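 Oocytes (ten per treatment, ≥4 independent frogs/days) were preloaded by injecting VF-6 in 25 nL ND96 at pH 5.0, 5.5, 6.0 or 7.0, or Na^+-free choline buffer, then uptake run 1.5 h, 27.5 °C, ND96 pH 5.5 by default. Internal concentrations assumed ~400 nL oocyte volume.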
# PfCRT^3D7 [6] = target: T1, PfCRT^3D7; test: cell-based; format: cell-based
# Outline: (§2)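 Transport measured in Xenopus oocytes expressing the transporters, 1.5 h at 27.5 °C in ND96 pH 5.5 unless noted. For trans-stimulation, VF-6 injected in 25 nL ND96 at pH 5.0–7.0 or Na^+-free (choline) buffer; intracellular levels based on ~400 nL oocyte volume. Ten oocytes per treatment, ≥4 experiments.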
# PfCRT^Dd2 [7] = target: T2, PfCRT^Dd2; test: cell-based; format: cell-based; settings: […]; for activity at 45000 µM: [test solute]i = 45 mM (30 mM for some solutes due to solubility)
# Outline: as §2
# PfCRT^Ecu1110 [8] = target: T3, PfCRT^Ecu1110; test: cell-based; format: cell-based; settings: […]
# Outline: as §2
# PfNT1 = target: T4, PfNT1 (Plasmodium falciparum, UniProt Q8IDM6); test: cell-based; format: cell-based; settings: for activity at 5000 µM: total [3H]CQ transport
# T4 construct: expressed in transfected cells; host or cells: Xenopus laevis oocytes (stage V-VI), cRNA-injected
# Outline: as §2
# PfCRT [9] = test: Test of solutes as potential co-substrates for influx of VF-6 via PfCRT into the oocyte; format: cell-based, Plasmodium falciparum; design: key: X: Compounds that have been tested as potential co-substrates but are not required for influx of VF-6 via PfCRT into the oocyte; settings: X = tested
# PfCRT [10] = test: Potential co-substrates tested for influx of VF-6 via PfCRT into the oocyte; format: cell-based, Plasmodium falciparum; design: key: X: Compounds that have been tested as potential co-substrates but are not required for influx of VF-6 via PfCRT into the oocyte
# [11] = Oocyte, mean ± SEM, SEM, read-out: Uptake of [3H]CQ (% PfCRTDd2 control), cis-inhibition, non-expressing oocytes
# [12] = non-expressing oocytes, normalised to the oocyte type control, read-out: Uptake of [3H]CQ (% non-expressing oocyte control), cis-inhibition
# [13] = PfCRT3D7 oocytes, normalised to the oocyte type control, read-out: Uptake of [3H]CQ (% PfCRT3D7 control), cis-inhibition
# [14] = mean ± SEM, SEM, read-out: Uptake of [3H]CQ (% PfCRTDd2 control), cis-inhibition, PfCRT3D7
# [15] = read-out: PfCRT-mediated [3H]CQ transport, cis-inhibition (% PfCRTDd2 control)
# [16] = read-out: Uptake of [3H]CQ (% PfCRTDd2 control), cis-inhibition, PfCRTDd2, SEM
# [17] = read-out: PfCRT-mediated [3H]CQ transport, cis-inhibition (% PfCRTEcu1110 control)
# [18] = read-out: Uptake of [3H]CQ (% PfCRTDd2 control), cis-inhibition, PfCRTEcu1110, SEM
# [19] = read-out: Uptake of [3H]CQ (% PfCRTEcu1110 control), cis-inhibition
# [20] = read-out: [3H]CQ transport (% PfCRTEcu1110 control), cis-inhibition, PfCRTEcu1110, SEM
# T2 sequence (Q9N623 whole entry A220S/I356T/K76T/M74I/N326S/N75E/Q271E/R371I): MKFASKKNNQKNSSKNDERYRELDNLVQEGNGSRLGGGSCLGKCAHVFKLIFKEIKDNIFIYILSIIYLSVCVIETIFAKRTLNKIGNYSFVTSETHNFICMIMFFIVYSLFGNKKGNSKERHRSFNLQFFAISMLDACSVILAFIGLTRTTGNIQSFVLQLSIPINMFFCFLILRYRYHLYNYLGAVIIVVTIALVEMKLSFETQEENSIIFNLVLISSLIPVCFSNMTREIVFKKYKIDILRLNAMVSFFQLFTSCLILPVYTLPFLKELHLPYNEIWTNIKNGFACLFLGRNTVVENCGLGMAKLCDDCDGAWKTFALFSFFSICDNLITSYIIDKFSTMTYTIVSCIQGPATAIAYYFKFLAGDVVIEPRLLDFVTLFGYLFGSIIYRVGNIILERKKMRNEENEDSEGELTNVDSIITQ
# T4 sequence (Q8IDM6 whole entry): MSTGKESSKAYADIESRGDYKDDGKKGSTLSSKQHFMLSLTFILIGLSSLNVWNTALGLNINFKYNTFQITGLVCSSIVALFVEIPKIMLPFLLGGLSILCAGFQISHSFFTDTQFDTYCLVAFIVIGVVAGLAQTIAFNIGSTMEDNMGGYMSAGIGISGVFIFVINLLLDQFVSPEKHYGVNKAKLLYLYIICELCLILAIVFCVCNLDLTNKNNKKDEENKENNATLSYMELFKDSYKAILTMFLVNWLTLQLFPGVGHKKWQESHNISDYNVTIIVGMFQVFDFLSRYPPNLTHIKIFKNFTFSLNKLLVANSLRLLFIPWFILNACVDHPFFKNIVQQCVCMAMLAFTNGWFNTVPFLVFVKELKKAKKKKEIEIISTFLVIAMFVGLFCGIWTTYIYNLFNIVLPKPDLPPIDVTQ
# T3 sequence (Q9N623 whole entry A220S/I356L/K76T/N326D): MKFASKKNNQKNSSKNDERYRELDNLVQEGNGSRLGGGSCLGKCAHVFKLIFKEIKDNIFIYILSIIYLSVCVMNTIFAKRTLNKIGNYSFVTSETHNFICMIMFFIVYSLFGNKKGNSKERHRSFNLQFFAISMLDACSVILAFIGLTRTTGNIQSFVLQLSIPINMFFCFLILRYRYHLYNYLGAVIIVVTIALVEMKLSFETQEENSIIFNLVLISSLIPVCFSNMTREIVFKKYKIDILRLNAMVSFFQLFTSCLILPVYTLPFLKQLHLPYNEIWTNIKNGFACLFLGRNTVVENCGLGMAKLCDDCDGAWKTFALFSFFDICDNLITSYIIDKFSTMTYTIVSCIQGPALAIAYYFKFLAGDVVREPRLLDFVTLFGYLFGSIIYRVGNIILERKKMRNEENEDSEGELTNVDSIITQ
# T1 sequence (Q8IBZ9 59-398): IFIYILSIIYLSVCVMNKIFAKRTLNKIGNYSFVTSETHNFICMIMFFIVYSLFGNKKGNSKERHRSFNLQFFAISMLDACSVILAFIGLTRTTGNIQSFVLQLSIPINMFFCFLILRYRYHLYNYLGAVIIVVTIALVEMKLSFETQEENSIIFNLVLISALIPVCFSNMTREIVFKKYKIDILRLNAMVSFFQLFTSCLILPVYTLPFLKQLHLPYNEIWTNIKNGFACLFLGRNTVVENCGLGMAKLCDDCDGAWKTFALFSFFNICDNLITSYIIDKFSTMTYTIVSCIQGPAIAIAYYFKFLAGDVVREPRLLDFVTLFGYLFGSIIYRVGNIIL
smiles,measurement,setting,value
N[C@@H](Cc1ccccc1)C(=O)O [L-phenylalanine],inhibition at 500 µM,non-expressing oocytes [1]; [11],3 ± 0.06%
same,inhibition at 1000 µM,non-expressing oocytes [1]; [11],2.7 ± 0.04%
same,inhibition at 2000 µM,non-expressing oocytes [1]; [11],2.3 ± 0.1%
same,inhibition at 500 µM,non-expressing oocytes [1]; [12],98 ± 6.3%
same,inhibition at 1000 µM,non-expressing oocytes [1]; [12],100 ± 4.6%
same,inhibition at 2000 µM,non-expressing oocytes [1]; [12],99 ± 3.2%
same,inhibition at 500 µM,PfCRT^3D7 [2]; [13],99 ± 4.3%
same,inhibition at 1000 µM,PfCRT^3D7 [2]; [13],99 ± 5.2%
same,inhibition at 2000 µM,PfCRT^3D7 [2]; [13],100 ± 3.6%
same,inhibition at 500 µM,PfCRT^3D7 [2]; [14],3.1 ± 0.06%
same,inhibition at 1000 µM,PfCRT^3D7 [2]; [14],3.1 ± 0.06%
same,inhibition at 2000 µM,PfCRT^3D7 [2]; [14],3.1 ± 0.07%
same,inhibition at 500 µM,PfCRT^Dd2 [3]; [15],94 ± 2.7%
same,inhibition at 1000 µM,PfCRT^Dd2 [3]; [15],95 ± 2.7%
same,inhibition at 500 µM,PfCRT^Dd2 [3]; [16],96 ± 3.6%
same,inhibition at 1000 µM,PfCRT^Dd2 [3]; [16],97 ± 3.3%
same,inhibition at 2000 µM,PfCRT^Dd2 [3]; [16],98 ± 2.2%
same,inhibition at 500 µM,PfCRT^Ecu1110 [4]; [17],95 ± 3.6%
same,inhibition at 1000 µM,PfCRT^Ecu1110 [4]; [17],95 ± 0.3%
same,inhibition at 500 µM,PfCRT^Ecu1110 [4]; [18],32 ± 2.5%
same,inhibition at 1000 µM,PfCRT^Ecu1110 [4]; [18],32 ± 1.5%
same,inhibition at 2000 µM,PfCRT^Ecu1110 [4]; [18],32 ± 1.5%
same,inhibition at 500 µM,PfCRT^Ecu1110 [4]; [19],97 ± 2.1%
same,inhibition at 1000 µM,PfCRT^Ecu1110 [4]; [19],96 ± 1.8%
same,inhibition at 2000 µM,PfCRT^Ecu1110 [4]; [19],98 ± 2.4%
same,inhibition at 500 µM,PfCRT^Ecu1110 [4]; [20],29 ± 0.7%
same,inhibition at 1000 µM,PfCRT^Ecu1110 [4]; [20],29 ± 1.7%
same,inhibition at 2000 µM,PfCRT^Ecu1110 [4]; [20],29 ± 0.5%
same,"Uptake of [3H]CQ (% non-expressing oocyte control), trans-stimulation",non-expressing oocytes [5]; [test solute]i = 5 mM,98 ± 2.6 % non-expressing oocyte control
same,"Uptake of [3H]CQ (% non-expressing oocyte control), trans-stimulation",non-expressing oocytes [5]; [test solute]i = 45 mM (30 mM for some solutes due to solubility),99 ± 2.7 % non-expressing oocyte control
same,"Uptake of [3H]CQ (% PfCRTDd2 control), trans-stimulation, non-expressing oocytes",non-expressing oocytes [5]; [test solute]i = 5 mM (intracellular),2.4 ± 0.03 % PfCRTDd2 control
same,"Uptake of [3H]CQ (% PfCRTDd2 control), trans-stimulation, non-expressing oocytes",non-expressing oocytes [5]; [test solute]i = 45 mM (intracellular; 30 mM for some solutes due to solubility),2.2 ± 0.09 % PfCRTDd2 control
same,activity at 5000 µM,"PfCRT^3D7 [6]; PfCRT3D7 oocytes, [test solute]i = 5 mM, total [3H]CQ transport, normalised to the oocyte type control, read-out: Uptake of [3H]CQ (% PfCRT3D7 control), trans-stimulation",98 ± 3.3%
same,"[3H]CQ transport (% PfCRT3D7 control), trans-stimulation, PfCRT3D7",PfCRT^3D7 [6]; SEM,0.3 ± 0.01 % PfCRT3D7 control
same,activity at 5000 µM,"PfCRT^3D7 [6]; [test solute]i = 5 mM (intracellular), PfCRT3D7 oocytes, normalised to oocyte type control, read-out: PfCRT-mediated [3H]CQ transport, trans-stimulation (% PfCRT3D7 control)",96 ± 2.8%
same,activity at 45000 µM,"PfCRT^3D7 [6]; SEM, read-out: Uptake of [3H]CQ (% PfCRTDd2 control), trans-stimulation, PfCRT3D7",3.3 ± 0.05%
same,activity at 45000 µM,"PfCRT^3D7 [6]; read-out: PfCRT-mediated [3H]CQ transport, trans-stimulation (% PfCRT3D7 control)",96 ± 2.1%
same,activity at 45000 µM,"PfCRT^3D7 [6]; read-out: Uptake of [3H]CQ (% PfCRT3D7 control), trans-stimulation",98 ± 3%
same,activity at 5000 µM,"PfCRT^3D7 [6]; total [3H]CQ transport, [test solute]i = 5 mM (intracellular), mean ± SEM, SEM, read-out: Uptake of [3H]CQ (% PfCRTDd2 control), trans-stimulation, PfCRT3D7",3.3 ± 0.01%
same,activity at 5000 µM,"PfCRT^Dd2 [7]; pH 5.5, read-out: PfCRT-mediated [3H]CQ transport, trans-stimulation (% PfCRTDd2 control), [test solute]i = 5 mM (intracellular), PfCRTDd2 oocytes, normalised to oocyte type control",99 ± 3.9%
same,activity at 5000 µM,"PfCRT^Dd2 [7]; pH 5.5, read-out: Uptake of [3H]CQ (% PfCRTDd2 control), trans-stimulation, PfCRTDd2, total [3H]CQ transport, [test solute]i = 5 mM (intracellular), mean ± SEM, SEM",101 ± 2.4%
same,activity at 5000 µM,"PfCRT^Dd2 [7]; pH 5.5, read-out: Uptake of [3H]CQ (% PfCRTDd2 control), trans-stimulation, PfCRTDd2 oocytes, [test solute]i = 5 mM, total [3H]CQ transport, normalised to the oocyte type control",101 ± 2.4%
same,activity at 45000 µM,"PfCRT^Dd2 [7]; pH 5.5, read-out: Uptake of [3H]CQ (% PfCRTDd2 control), trans-stimulation, PfCRTDd2 oocytes, total [3H]CQ transport, normalised to the oocyte type control",100 ± 2.2%
same,activity at 5000 µM,"PfCRT^Dd2 [7]; pH 5.5, read-out: [3H]CQ transport (% PfCRTDd2 control), trans-stimulation, PfCRTDd2, trans-stimulation, [test solute]i = 5 mM (injected), PfCRT-mediated component (background subtracted), mean ± SEM, SEM",99 ± 3.9%
same,activity at 45000 µM,"PfCRT^Dd2 [7]; pH 5.5, read-out: [3H]CQ transport (% PfCRTDd2 control), trans-stimulation, PfCRTDd2, trans-stimulation, PfCRT-mediated component (background subtracted), mean ± SEM, SEM",98 ± 3%
same,activity at 5000 µM,"PfCRT^Ecu1110 [8]; pH 5.5, read-out: PfCRT-mediated [3H]CQ transport, trans-stimulation (% PfCRTEcu1110 control), [test solute]i = 5 mM (intracellular), PfCRTEcu1110 oocytes, normalised to oocyte type control",96 ± 1.9%
same,activity at 5000 µM,"PfCRT^Ecu1110 [8]; pH 5.5, read-out: Uptake of [3H]CQ (% PfCRTEcu1110 control), trans-stimulation, PfCRTEcu1110 oocytes, [test solute]i = 5 mM, total [3H]CQ transport, normalised to the oocyte type control",98 ± 3.4%
same,activity at 45000 µM,"PfCRT^Ecu1110 [8]; pH 5.5, read-out: Uptake of [3H]CQ (% PfCRTEcu1110 control), trans-stimulation, PfCRTEcu1110 oocytes, [test solute]i = 45 mM (30 mM for some solutes due to solubility), total [3H]CQ transport, normalised to the oocyte type control",101 ± 3.2%
same,activity at 5000 µM,"PfCRT^Ecu1110 [8]; read-out: Uptake of [3H]CQ (% PfCRTDd2 control), trans-stimulation, PfCRTEcu1110, total [3H]CQ transport, [test solute]i = 5 mM (intracellular), mean ± SEM, SEM",35 ± 1.3%
same,activity at 45000 µM,"PfCRT^Ecu1110 [8]; read-out: Uptake of [3H]CQ (% PfCRTDd2 control), trans-stimulation, PfCRTEcu1110, total [3H]CQ transport, [test solute]i = 45 mM (intracellular; 30 mM for some solutes due to solubility), mean ± SEM, SEM",36 ± 1.7%
same,activity at 5000 µM,"PfNT1; PfNT1 oocytes, [test solute]i = 5 mM, normalised to the oocyte type control, read-out: Uptake of [3H]CQ (% PfNT1 control), trans-stimulation",99 ± 2.2%
same,activity at 45000 µM,"PfNT1; SEM, read-out: Uptake of [3H]CQ (% PfCRTDd2 control), trans-stimulation, PfNT1",2.8 ± 0.07%
same,activity at 45000 µM,"PfNT1; read-out: Uptake of [3H]CQ (% PfNT1 control), trans-stimulation",100 ± 2.5%
same,activity at 5000 µM,"PfNT1; [test solute]i = 5 mM (intracellular), mean ± SEM, SEM, read-out: Uptake of [3H]CQ (% PfCRTDd2 control), trans-stimulation, PfNT1",3 ± 0.01%
same,Tested as potential co-substrate but not required for influx of VF-6 via PfCRT into the oocyte,PfCRT [9],X
same,Tested as potential co-substrate but not required for influx of VF-6 via PfCRT into the oocyte,PfCRT [10],X
